# Source: patent publication US8796429B2, “Bioactive lipid derivatives, and methods of making and using same” (Lpath, Inc., priority 2006, dated 2014)
# “Also recorded” adds a separate entry of the source.
# B1: anti-S1P mAb: murine IgG1 kappa monoclonal antibody against S1P from hybridoma clone 306D326.26 (ATCC SD-5362) (antibody, listed as Mus musculus, V domains shown)
# VH: QAHLQQSDAELVKPGASVKISCKVSGFIFIDHTIHWMKQRPEQGLEWIGCISPRHDITKYNEMFRGKATLTADKSSTTAYIQVNSLTFEDSAVYFCARGGFYGSTIWFDFWGQGTTLTVS
# VL: ETTVTQSPASLSMAIGEKVTIRCITTTDIDDDMNWFQQKPGEPPNLLISEGNILRPGVPSRFSSSGYGTDFLFTIENMLSEDVADYYCLQSDNLPFTFGSGTKLEIK
# Experiments:
# [1] = Direct ELISA, chimeric antibody and mutants binding to S1P; details: for Binding: antibody 0.1 ug/ml, optical density at 450 nm
# Description: Microtiter ELISA plates (Costar) were coated overnight with S1P diluted in 1 M Carbonate Buffer (pH 9.5) at 37° C. for 1 hr. Plates were washed with PBS (137 mM NaCl, 2.68 mM KCl, 10.1 mM Na2HPO4, 1.76 mM KH2PO4; pH 7.4) and blocked with PBS/BSA/Tween-20 for 1 hr at room temp or overnight at 4° C. For the primary incubation (1 hr at room temp.), a standard curve using the anti-S1P mAb and the samples to be tested for binding was built using the following set of dilutions: 0.4 μg/mL, 0.2 μg/mL, 0.1 μg/mL, 0.05 μg/mL, 0.0125 μg/mL, and 0 μg/mL, and 100 μl added to each well. Plates were washed and incubated with 100 μl per well of HRP conjugated goat anti-mouse (1:20,000 dilution) (Jackson Immuno Research) or HRP conjugated goat anti-human (H+L) diluted 1:50,000 (Jackson Immuno Research) for 1 hr at room temperature. After washing, the enzymatic reaction was detected with tetramethylbenzidine (Sigma) and stopped by adding 1 M H2SO4. The optical density (OD) was measured at 450 nm using a Thermo Multiskan EX. Raw data were transferred to GraphPad software for analysis.
# The chromogenic reaction was measured and reported as Optical density (OD). The concentration of the panel of antibodies was 0.1 ug/ml. No interaction of the second antibody with S1P-coated matrix alone was detected.
# SKOV3 cells = experiment: Taxol-induced apoptosis (caspase activity); format: cell-based, human
# Description: The ability of LPA to protect ovarian tumor cells against apoptosis when exposed to clinically-relevant levels of the chemotherapeutic agent, paclitaxel (Taxol) was investigated. SKVO3 cells were treated with 1% FBS (S), Taxol ([…]), +/− anti-LPA mAbs for 24 h. […] Apoptosis was assayed by measurement of the caspase activity as recommended by the manufacturer (Promega). As anticipated, LPA protected most of the cancer cell lines tested from taxol-induced cell death. […] Moreover, the anti-LPA antibody was able to remove the protection provided by serum. Serum is estimated to contain about […] LPA. […] Taxol-induced caspase activation was enhanced by the addition of all 3 of the anti-LPA mAbs to the culture medium.
# Caki-1 cells = experiment: LPA-induced IL-8 release, ELISA of supernatants; format: cell-based, human; details: 18:1 LPA 0.2 mM, cells without mAb, 24 h
# Description: Three anti-LPA mAbs (B3, B7 and B58) were tested for their abilities to reduce in vitro IL-8 production compared to a non-specific antibody (NS). Caki-1 cells were seeded in 96 well plates and grown to confluency. After overnight serum starvation, cells were treated with 18:1 LPA (0.2 mM) with or without anti-LPA mAb B3, B7, B58 or NS (Non-Specific). After 24 h, cultured supernatants of renal cancer cells (Caki-1), treated with or without LPA and in presence of increasing concentrations of the anti-LPA mAbs B3, B7 and B58, were collected and analyzed for IL-8 levels using a commercially available ELISA kit (Human Quantikine Kit, R&D Systems, Minneapolis, Minn.). […] Similar results were obtained with the other well-known pro-angiogenic factor, VEGF. The inhibition of IL-8 release by the anti-LPA mAbs was also observed in other cancerous cell lines such as the pancreatic cell line Panc-1.
# human cancer cell lines = experiment: LPA-induced cancer cell proliferation; format: cell-based; details: LPA 0.01 mM to 10 mM; SKOV3, OVCAR3, Panc-1, Caki-1, DU-145, A549, HCT-116; also rat RBL-2H3
# Description: LPA is a potent growth factor supporting cell survival and proliferation by stimulation of Gi, Gq and G12/13 via GPCR-receptors and activation of downstream signaling events. Cell lines were tested for their proliferative response to LPA ([…]). Cell proliferation was assayed by using the cell proliferation assay kit from Chemicon (Temecula Calif.) (Panc-1) and the Cell-Blue titer from Pierce (Caki-1). Each data point is the mean of three independent experiments. […] Even though tumor-derived cells normally have high basal levels of proliferation, LPA appears to further augment proliferation in most tumor cell lines. Anti-LPA mAbs (B7 and B58) were assessed for the ability to inhibit LPA-induced proliferation in selected human cancer cell lines.
# [2] = Competitive ELISA, specificity of anti-S1P mAb (free lipid competes with plate-bound S1P); format: binding; details: competitor free S1P
# Description: Screening of serum and cell supernatant for S1P-specific antibodies was by direct ELISA using the thiolated S1P analog described in Example 1 (i.e., compound 10) as the antigen. A standard ELISA was performed, as described below, except that 50 ul of sample (serum or cell supernatant) was diluted with an equal volume of PBS/0.1% Tween-20 (PBST) during the primary incubation. ELISAs were performed in 96-well high binding ELISA plates (Costar) coated with 0.1 μg of chemically-synthesized compound 10 conjugated to BSA in binding buffer (33.6 mM Na2CO3, 100 mM NaHCO3; pH 9.5). The thiolated-S1P-BSA was incubated at 37° C. for 1 hr. at 4° C. overnight in the ELISA plate wells. The plates were then washed four times with PBS (137 mM NaCl, 2.68 mM KCl, 10.14 mM Na2HPO4, 1.76 mM KH2PO4; pH 7.4) and blocked with PBST for 1 hr. at room temperature. For the primary incubation step, 75 uL of the sample (containing the S1P to be measured), was incubated with 25 uL of 0.1 ug/mL anti-S1P mAb diluted in PBST and added to a well of the ELISA plate. […] Optical density of the samples was determined by measurement at 450 nm using an EL-X-800 ELISA plate reader (Bio-Tech).
# For cross reactivity, a competitive ELISA was performed as described above, except for the following alterations (FIG. 4). […] Biotin incorporation was determined as per kit protocol and ranged from 7 to 11 biotin molecules per antibody. […]
# [3] = Competitive ELISA, specificity of anti-S1P mAb; format: binding
# Description: Screening of serum and cell supernatant for S1P-specific antibodies was by direct ELISA using the thiolated S1P analog described in Example 1 (i.e., compound 10) as the antigen. A standard ELISA was performed, as described below, except that 50 ul of sample (serum or cell supernatant) was diluted with an equal volume of PBS/0.1% Tween-20 (PBST) during the primary incubation. ELISAs were performed in 96-well high binding ELISA plates (Costar) coated with 0.1 μg of chemically-synthesized compound 10 conjugated to BSA in binding buffer (33.6 mM Na2CO3, 100 mM NaHCO3; pH 9.5). The thiolated-S1P-BSA was incubated at 37° C. for 1 hr. at 4° C. overnight in the ELISA plate wells. The plates were then washed four times with PBS (137 mM NaCl, 2.68 mM KCl, 10.14 mM Na2HPO4, 1.76 mM KH2PO4; pH 7.4) and blocked with PBST for 1 hr. at room temperature. For the primary incubation step, 75 uL of the sample (containing the S1P to be measured), was incubated with 25 uL of 0.1 ug/mL anti-S1P mAb diluted in PBST and added to a well of the ELISA plate. Each sample was performed in triplicate wells. Following a 1 hr. incubation at room temperature, the ELISA plates were washed four times with PBS and incubated with 100 ul per well of 0.1 ug/mL HRP goat anti-mouse secondary (Jackson Immunoresearch) for 1 hr. at room temperature. Plates were then washed four times with PBS and exposed to tetramethylbenzidine (Sigma) for 1-10 minutes. The detection reaction was stopped by the addition of an equal volume of 1M H2SO4. Optical density of the samples was determined by measurement at 450 nm using an EL-X-800 ELISA plate reader (Bio-Tech).
# For cross reactivity, a competitive ELISA was performed as described above, except for the following alterations (FIG. 4). The primary incubation consisted of the competitor (S1P, SPH, LPA, etc.) and a biotin-conjugated anti-S1P mAb. Biotinylation of the purified monoclonal antibody was performed using the EZ-Link Sulfo-NHS-Biotinylation kit (Pierce). Biotin incorporation was determined as per kit protocol and ranged from 7 to 11 biotin molecules per antibody. […]
# [4] = ELISA with exchanged crosslinker or protein carrier in the laydown material; format: binding
# From the text: For example, the normal crosslinker SMCC was exchanged for IOA in conjugating the thiolated-S1P to BSA as the laydown material in the ELISA. […] Similarly, KLH was exchanged for BSA as the protein that was complexed with thiolated-S1P as the laydown material.
molecule,measurement,setting,value
MetLeu,Binding,[1],1.6 OD
"CC(=O)O[C@H]1C(=O)[C@@]2(C)[C@H]([C@H](OC(=O)c3ccccc3)[C@]3(O)C[C@H](OC(=O)[C@H](O)[C@@H](NC(=O)c4ccccc4)c4ccccc4)C(C)=C1C3(C)C)[C@]1(OC(C)=O)CO[C@@H]1C[C@@H]2O [Taxol, paclitaxel]","caspase-3,7 activation",SKOV3 cells; SKOV3 cells,"induced caspase-3,7 activation"
CysPhe,binding to S1P compared with the chimeric antibody,"[1]; ELISA, substitution of Cys 50 in heavy chain CDR2",did not alter the binding
same,Binding,[1],2 OD
lysophosphatidic acid [LPA],protection from Taxol-induced apoptosis,"SKOV3 cells; Taxol 0.5 mM, 24 h",protected SKVO3 cells from Taxol-induced apoptosis
same,increase of IL-8 expression,Caki-1 cells,100%
same,proliferative response to LPA,human cancer cell lines,increased proliferation
B1,competition for mAb binding to S1P on the plate,[2],can compete for binding
same,discrimination of thiolated-S1P analog from natural S1P,[3]; competition experiment,unable to distinguish
same,competition for mAb binding to S1P on the plate,[3]; competitor DH-S1P,can compete for binding
same,competition for mAb binding to S1P on the plate,[3]; competitor SPC (phosphate linked with choline),somewhat reduced; also recorded: only slightly competes for binding
same,"binding characteristics, laydown with KLH instead of BSA",[4]; KLH complexed with thiolated-S1P,no significant difference
same,"binding characteristics, laydown with IOA instead of SMCC","[4]; thiolated-S1P conjugated to BSA, compared with BSA-SMCC-thiolated-S1P",nearly identical
